Key:
HUVECs = experiment: HUVEC tube formation assay; format: cell-based, human
Description: A HUVEC tube formation assay was used to test the ability of MSCs and SB623 cells to elaborate factors that stimulate vessel formation. See, for example, E J Smith & C A Staton, “Tubule formation assays,” in Angiogenesis Assays—A Critical Appraisal of Current Techniques, (Staton, Lewis & Bicknell, eds.). John Wiley & Sons, Ltd., West Sussex, UK, pp. 65-87, 2006; and Goodwin (2007) Microvasc. Res. 74:172-183.
HUVECs were passed five times in EBM-2/ECGS medium, then transferred to alpha-MEM/0.5% FBS/2 mM glutamine/pen-strep, at a density of 1×10^5 cells/ml. After 24 hours, HUVECs were harvested using 0.25% trypsin-EDTA, rinsed, and resuspended in α-MEM/2 mM glutamine/pen-strep at a density of 1×10^5 cells/ml. A mixture of 75 ul of HUVECs plus 75 ul of either MSC- or SB623-conditioned medium (Example 1), or 75 ul OptiMEM medium as a negative control, was added to each well of a 96-well plate that had been pre-treated by adding 50 ul of Reduced Growth Factor (RGF)-basement gel (Invitrogen, Carslsbad, CA) per well and incubating the plates at 37° C. for 45 minutes. For this assay, MSCs were obtained from 3 different human donors, and a portion of the MSCs from each donor were converted to SB623 cells.
After 16 hours, the cultures were examined by phase contrast microscopy and photographed. The number of complete tubes (formed by contiguous cells) was quantified by an experimenter blinded to the group. […] Thus, MSCs and SB623 cells secrete factors that promote vasculogenesis.
HUVEC tube formation assays with conditioned medium from MSCs and SB623 cells were conducted as described in Example 4, in the presence and absence of the VEGF2 receptor inhibitor SU5416.
Quantitation of tube formation was conducted, as described in Example 4, for HUVECs exposed to SB623 cell conditioned medium in the presence and absence of SU5416, at 16 and 40 hours after plating.

aortic rings = experiment: Aortic ring assay (vessel outgrowth and branching); format: cell-based, Sprague-Dawley rats; conditions: 50 nM SU5416, rat aortic rings, 10 days
Description: Restoration of vasculature after ischemic injury requires that surviving endothelial cells receive signals that prompt their migration and invasion. Such signals may arise from vascular smooth muscle cells, monocytes, and/or macrophages, among others. To test for secretion of factors involved in vessel sprouting and branching, the aortic ring assay was used. See, for example, Nicosia & Ottinetti (1990) Lab. Invest. 63:115-122 and Nicosia (2009) J. Cell. Mol. Med. 13:4113-4136.
For preparation of aortic rings, adult Sprague-Dawley rats were euthanized prior to dissection. After clamping off its two ends, the aorta was removed and placed in ice-cold α-MEM/pen-strep medium prior to removal of the external adipose layer. Adipose-free aorta was rinsed twice with ice-cold EBM-2/pen-strep medium before being sectioned into rings of 1.0 mm thickness. […]
To assess the angiogenic activity of MSC- and SB623-derived factors, phase contrast photographs were taken on Day 10, and results were quantified by an experimenter blinded to the group, by counting vessel outgrowth and branching. Growth of new vessels was quantitated by measuring the number of vessels growing out from the ring; and vessel branching was quantitated by measuring the number of branchpoints present in vessels growing out from the aortic ring. […]

[1] = tested on: human umbilical vein endothelial cells (HUVECs); experiment: HUVEC survival: propidium iodide staining of serum/growth factor-starved HUVECs; format: cell-based; conditions: 50 nM SU5416 + SB623 cell-conditioned medium, five days, vs SB623 CM alone
Procedure: (§1) Cerebral ischemia can result in loss of nutrient supply to the affected area. To determine if soluble factors from SB623 cells and MSCs have restorative effects on nutrient-deprived endothelial cells, human umbilical vein endothelial cells (HUVECs) were cultured in medium depleted of serum and growth factors for 24 hours, then exposed to conditioned medium (CM) from MSCs or SB623 cells. Control cultures remained in serum- and growth factor-depleted medium without addition of CM. Viability and proliferative capacity of the HUVECs were then assessed.
(§2) For these experiments, human umbilical vein endothelial cells were passed twice, then 7.5×10^5 cells were plated in EBM-2/ECGS medium (Endothelial Basal Medium-2/Endothelial Cell Growth Supplements; Lonza, Walkersville, MD) on T-75 flasks coated with 0.1% gelatin and cultured for 24 hours. The HUVEC monolayers were rinsed twice with warm PBS and incubated with 12 ml of fresh EBM-2 medium overnight at 37° C., 5% CO2. Effects of CM were then assessed by withdrawing 6 ml of medium from each flask, and replacing it with 6 ml fresh OptiMEM (control), 6 ml MSC conditioned medium, or 6 ml SB623 cell conditioned medium (conditioned media prepared as described in Example 1). […]
To quantify cell death, cells were stained with propidium iodide (PI), since dead cells are permeable to PI. […]

[2] = tested on: human umbilical vein endothelial cells (HUVECs); experiment: HUVEC proliferation: fraction of Ki67-expressing cells by flow cytometry; format: cell-based; conditions: 50 nM SU5416 + SB623 cell conditioned medium, five days
Procedure: Ki67 is a protein present in cells exiting from the GO (quiescent) phase of the cell cycle; therefore Ki67 levels can be used as a measure of cell proliferation. The fraction of cells expressing Ki67 protein was measured in HUVECs that had been starved for serum and growth factors, then cultured with conditioned medium from either MSCs or SB623 cells.
For Ki67 measurement, HUVECs were cultured and exposed to CM as described in Example 2. Cells were fixed in 4% paraformaldehyde and permeabilized with 0.1% Triton-X100 for one hour. Following permeabilization, cells were stained for one hour on ice with fluorescein-conjugated anti-KI67 antibody, then samples were washed, acquired, and analyzed on the FL-1 channel of a BD FACSCalibur. Cells exposed to fluorescein-conjugated IgG were used as a negative control. For these assays, 3 different human donor pairs were tested.
The effect of the VEGF receptor inhibitor on stimulation of HUVEC proliferation by SB623 cell factors was also assessed. Assays for expression of Ki67 were conducted as described in Example 3, except that 50 nM SU5416 was added to cultures 30 minutes before addition of conditioned medium, and cells were cultured for five days, instead of seven, before assay.

[3] = tested on: human umbilical vein endothelial cells (HUVECs); experiment: HUVEC survival: fraction of Bcl-2-expressing cells by flow cytometry; format: cell-based; conditions: 50 nM SU5416 + SB623 cell-conditioned medium, five days, vs SB623 CM alone
Procedure: as §1
as §2, with “The HUVEC monolayers were rinsed twice with warm PBS and incubated with 12 ml of fresh EBM-2 medium overnight at 37° C., 5% CO2.” left out
Bcl-2 is an anti-apoptotic protein originally identified as being overexpressed in certain B-cell lymphomas. Accordingly, the fraction of cells expressing the Bcl-2 protein was measured in serum/growth factor-starved HUVECs as an indicator of their apoptotic potential. […]

Compound | tube formation by HUVECs (positive control) (HUVECs; 10 ng/ml VEGF, 16 hours) | vessel outgrowth and branching in SB623 cell-conditioned medium plus inhibitor (aortic rings) | propidium iodide uptake by HUVECs in SB623 conditioned medium plus inhibitor [1] | effect on enhancement of HUVEC proliferation (Ki67) by SB623 conditioned medium [2] | Bcl-2 expression by HUVECs in SB623 conditioned medium plus inhibitor [3] | effect on positive effect of SB623 CM on tube formation (quantitation) (HUVECs; 50 nM SU5416, 16 and 40 hours after plating) | effect on stimulation of tube formation by VEGF, MSC-CM and SB623-CM (HUVECs; 50 nM SU5416, 16 hours)
VEGF | promote tube formation | – | – | – | – | – | –
Cc1cc(C)c(/C=C2\C(=O)Nc3ccccc32)[nH]1 [SU5416] | – | reduced | more cells take up PI | partially reversed | fewer cells express | completely reversed | reduces the stimulation of tube formation
